What was measured:
PSA = assay: Screening SSIA by homogeneous PSA immunoassay (anti-PSA-AK1 + anti-PSA-HRP); type: biochemical, human
Description: This example presents one method used for testing of candidate compounds for functionality as SSIA in assays of the present disclosure. Testing was conducted in a model screening immunoassay of the protein PSA. Tests were run using a 96-well microtiter plate format. A solution containing 30 μL of mouse anti-PSA-AK1 (66 ng), 30 μL of mouse anti-PSA-HRP conjugate (7.8 ng), 36 μL of human female serum, and 24 μL of PSA calibrator were pipetted into each well. The plate was incubated at 37° C. for 10 minutes. A 5 μL aliquot of the test compound (various concentrations) was added to each well. Chemiluminescence was triggered by the addition of 100 μL of a solution of a trigger solution whose composition is listed below. The chemiluminescent flash was integrated for 5 seconds after the addition of the trigger solution using a Luminoskan Asent® plate luminometer, (Thermo Fischer Scientific, Inc., Waltham, Mass.).
It is desirable that the improvement factor be at least 2 (S5/S0≧ about 20-30) and more desirable that improvement factor be at least 5 (S5/S0≧ about 50), yet more desirable that S5/S0 be ≧100 in the present screen.

biotinylated HRP = assay: Model system for selection of SSIA (AK1/streptavidin BSA microparticles + biotinylated HRP); type: biochemical, horseradish; details: SSIA 100 μM final
Description: The model system uses a microparticle conjugated to BSA (bovine serum albumin) labeled with a […] and acridan ketenedithioacetal chemiluminescent label (AK1) as the chemiluminescent-labeled sbp, and biotinylated HRP as the activator-labeled specific binding pair. In the model system, varying amounts of Btn-HRP is added to the chemiluminescent-labeled specific binding pair at 0, 1, 10, 100 and 250 ng/mL. Additional unlabeled HRP is added to reach a total HRP of concentration of 500 ng/mL in each reaction mixture. The unlabeled HRP in combination with the activator-labeled sbp was provided to the chemiluminescent-labeled sbp microparticles to emulate sample. A compound for assessment as an SSIA was also added. This reaction mixture of the model system is then triggered by addition of trigger solution in a manner of assays of the present disclosure.
To prepare the chemiluminescent-labeled sbp on microparticles, Bovine Serum Albumin (BSA) was biotinylated with 4× molar excess of biotin-LC-sulfoNHS (Pierce Biotechnology Inc., Rockford, Ill., USA). Unbound reactants were removed via desalting or dialysis. The biotin-BSA was then reacted with a 5× molar excess of an NHS ester of acridan ketenedithioacetal AK1 in 20 mM sodium phosphate pH 7.2: DMSO 75:25, v/v) followed by desalting in the same buffer. The dual labeled (biotin and AK1) BSA was then coupled with tosyl activated M280 microparticles (Invitrogen Corporation, Carlsbad, Calif., USA) in a 0.1M borate buffer pH 9.5 at a concentration of about 20 μg of labeled BSA per mg of microparticles for 16-24 h at 40° C. After coupling the microparticles were stripped for 1 h at 40° C. with 0.2 M TRIS base, 2% SDS, pH˜11. The stripping process was repeated one additional time. Microparticles were then suspended in a 0.1% BSA/TRIS buffered saline (BSA/TBS) buffer and streptavidin (SA) was added at approximately 15 μg SA per mg microparticles. Streptavidin was mixed with the microparticles for 45-50 min at room temperature. The microparticles were then washed three times and suspended in the same BSA/TBS.
HRP, (Roche Diagnostics, Indianapolis, Ind., USA) was biotinylated with 4× molar excess of biotin-LC-sulfoNHS (Pierce Biotechnology Inc., Rockford, Ill., USA). Alternatively, 25× molar excess of biotin-PEO4-NHS may be used. Unbound reactants were removed via desalting or dialysis.
Each SSIA compound for assessment was solubilized in Buffer II at a concentration at least 10× of the working strength concentration.
25 μl of 1 mg/ml of dual-labeled (biotin and AK1) BSA M280 particles were mixed with 45 μl of working concentration SSIA in Buffer II. The assay volume brought to 85 μl by adding 15 μl of Buffer II. 15 μl of sample containing Btn-HRP:HRP at different ratios (The amount of biotinylated-HRP varied from 0, 1, 10, 100 and 250 ng/mL) was added. The reaction mixture was incubated for 30 min at 37° C., then 100 μL of trigger solution was added and the light intensity recorded. Total volume of reaction mixture, including trigger solution was 200 μL with a final concentration of 100 μM of SSIA.
The screening tests were performed using a modified DxI® Immunoassay System (Beckman Coulter, Inc. Brea, Calif.) as described above.

[1] = test compound final conc. […] ([…]), S5 = 129 ng PSA/mL vs zero PSA
[2] = test compound final conc. 0.244 mM (244 uM)
[3] = test compound final conc. 0.061 mM (61 uM)

SMILES | S5/S0 (PSA; [1]) | further results
O=C1O[C@H]([C@@H](O)CO)C(=O)C1=O | 26 | –
O=C(O)C1c2ccccc2Oc2ccccc21 | 7 | –
COc1cc(C(C)(C)C)c(O)c(C(C)(C)C)c1 | 19 | –
Cc1cc(CO)c(O)c(CO)c1 | 23 | –
N[C@@H](CCC(=O)N[C@@H](CS)C(=O)NCC(=O)O)C(=O)O [Glutathione] | 77 | light intensity, BTN-HRP0 (biotinylated HRP; Btn-HRP 0 ng/mL, total HRP 500 ng/mL): 26,977; S1/S0 (biotinylated HRP; Btn-HRP 1 ng/mL vs 0): 2.1; light intensity, BTN-HRP1 (biotinylated HRP; Btn-HRP 1 ng/mL, total HRP 500 ng/mL): 55,719; S2/S0 (biotinylated HRP; Btn-HRP 10 ng/mL vs 0): 92; light intensity, BTN-HRP10 (biotinylated HRP; Btn-HRP 10 ng/mL, total HRP 500 ng/mL): 2,480,764; S3/S0 (biotinylated HRP; Btn-HRP 100 ng/mL vs 0): 323.7; light intensity, BTN-HRP100 (biotinylated HRP; Btn-HRP 100 ng/mL, total HRP 500 ng/mL): 8,733,068; S4/S0 (biotinylated HRP; Btn-HRP 250 ng/mL vs 0): 369.4; light intensity, BTN-HRP250 (biotinylated HRP; Btn-HRP 250 ng/mL, total HRP 500 ng/mL): 9,965,235; effectiveness as SSIA in the model system (biotinylated HRP): insuffient effectiveness
O=C(O)c1cc(O)c(O)c(O)c1 | 135 | –
N[C@@H](CS)C(=O)O [L-Cysteine] | 22 | –
O=C(O)c1cc(O)c2ccccc2n1 | 6 | –
c1ccc2c(c1)Nc1ccccc1O2 [drawing 87] | 605 | –
Nc1cc(C[C@H](N)C(=O)O)ccc1O | – | S5/S0 (PSA; [2]): 448
O=c1c(O)c(-c2ccccc2)oc2ccc(O)cc12 | 9 | –
O=S([O-])[O-].[Na+].[Na+] [Na2SO3] | – | S5/S0 (PSA; test compound final conc. 15 uM): 59
O=C(O)c1cccc(O)c1O | 22 | –
O=c1c2ccccc2[nH]c2ccccc12 | 14 | –
Nc1ccccc1B(O)O | 108 | –
Nc1c(O)ccc2ccccc12 | 63 | –
O=S(=O)([O-])CCCOCCCN1c2ccccc2Cc2ccccc21.[Na+] | – | S5/S0 (PSA; [2]): 6
O=C1O[C@H]([C@@H](O)CO)C([O-])=C1O.[Na+] [ascorbate sodium salt (ascorbate anion), ascorbate sodium salt] | 495 | –
O=c1ccc2cc(O)c(O)cc2o1 | 105 | –

SMILES | S5/S0 (PSA; [1]) | further results
Nc1ncccc1O | 32 | –
O=S(=O)([O-])CCCN1c2ccccc2Cc2ccccc21.[Na+] | – | S5/S0 (PSA; [2]): 15
O[C@@H](CS)[C@@H](O)CS [DTT] | – | S5/S0 (PSA; test compound final conc. 72 uM): 20
O=C1C=C(O)C(=O)C=C1O | – | S5/S0 (PSA; [2]): 14
NNC(=O)c1ccccc1O | – | S5/S0 (PSA; [3]): 23
C=CCc1ccc(O)c(OC)c1 | – | S5/S0 (PSA; [2]): 30
Cn1ccnc1S | – | S5/S0 (PSA; test compound final conc. 36.7 mM): 102
Nc1cc2ccccc2cc1O | – | S5/S0 (PSA; [2]): 67
O=C1C(O)=C(Cl)C(=O)C(O)=C1Cl | – | S5/S0 (PSA; test compound final conc. 0.031 mM): 7
O=C(O)/C(O)=C(/O)C(=O)O | 30 | –
OB(O)c1cc(Cl)ccc1O | – | S5/S0 (PSA; [2]): 22
Nc1c(O)cc(S(=O)(=O)O)c2ccccc12 | 65 | –
Oc1cccc(O)c1O | 69 | –
O=C1O[C@H]([C@H](O)CO)C(O)=C1O | 10.3 | –
O=C1O[C@H]([C@@H](O)CO)C(O)=C1O [drawing 89] | 423 | –
Nc1ccc(O)cc1O | – | S5/S0 (PSA; test compound final conc. 0.030 mM): 161
Nc1ccc2ccccc2c1O | – | S5/S0 (PSA; [2]): 109
Cc1ccc(O)c(O)c1 | 142 | –
COc1ccccc1O | 13 | –

SMILES | S5/S0 (PSA; [1]) | further results
COC1=C(O)C(=O)O[C@@H]1[C@@H](O)CO | 16 | –
COc1ccccc1N | 7 | –
O=S(=O)([O-])CCCN1c2ccccc2Sc2ccccc21.[Na+] | – | S5/S0 (PSA; [2]): 50
Nc1ccc(C(=O)O)cc1O [drawing 110] | 153 | –
O=c1cc(O)c2ccccc2o1 | 17 | –
Nc1cc(Cl)ccc1O | – | S5/S0 (PSA; [2]): 205
O=C1O[C@H]([C@@H](O)CO)C(O)=C1O [drawing 128] | 10.3 | –
O=c1c(O)c(-c2ccccc2)oc2cc(O)ccc12 | 14 | –
CC1(C)OC(=O)C(O)=C1O | 467 | –
Cc1cc(-c2cc(C)c(N)c(C)c2)cc(C)c1N [TMB] | – | S5/S0 (PSA; [3]): 20
O=C1O[C@H]([C@@H](O)CO)C([O-])=C1O.[Na+] | 9.2 | –
Nc1ccccc1O [drawing 97] | 649 | –
O=C1C(O)=C(O)C(=O)C(O)=C1O | – | S5/S0 (PSA; [3]): 51
Oc1cccnc1O | 41 | –
NN [NH2NH2] | – | S5/S0 (PSA; [2]): 15
Nc1cccc(Cl)c1O | – | S5/S0 (PSA; [2]): 300
Oc1ccc([C@@H]2Oc3cc(O)c(O)cc3C[C@@H]2O)cc1O | 323 | –
O=C(c1ccccc1)C1c2ccccc2Nc2ccccc21 | 9 | –

From patent publication US9029092B2, “Solution phase homogeneous assays” (Beckman Coulter, Inc., priority 2009, dated 2015)
